Laboratory results published in patent publication US12642791B2, “Inhibitors of lysyl oxidases” (UNIVERSITY OF SOUTH CAROLINA, priority 2021, dated 2026).

Key:
[1] = molecular target: T1, LOXL2 (Homo sapiens, UniProt Q9Y4K0); experiment: Lysyl oxidase activity assay with recombinant LOXL2 protein; format: biochemical; design: purchased Abcam, USA; conditions: for inhibition of recombinant LOXL2: 10 μM compound
T1 sequence (Q9Y4K0 26-774): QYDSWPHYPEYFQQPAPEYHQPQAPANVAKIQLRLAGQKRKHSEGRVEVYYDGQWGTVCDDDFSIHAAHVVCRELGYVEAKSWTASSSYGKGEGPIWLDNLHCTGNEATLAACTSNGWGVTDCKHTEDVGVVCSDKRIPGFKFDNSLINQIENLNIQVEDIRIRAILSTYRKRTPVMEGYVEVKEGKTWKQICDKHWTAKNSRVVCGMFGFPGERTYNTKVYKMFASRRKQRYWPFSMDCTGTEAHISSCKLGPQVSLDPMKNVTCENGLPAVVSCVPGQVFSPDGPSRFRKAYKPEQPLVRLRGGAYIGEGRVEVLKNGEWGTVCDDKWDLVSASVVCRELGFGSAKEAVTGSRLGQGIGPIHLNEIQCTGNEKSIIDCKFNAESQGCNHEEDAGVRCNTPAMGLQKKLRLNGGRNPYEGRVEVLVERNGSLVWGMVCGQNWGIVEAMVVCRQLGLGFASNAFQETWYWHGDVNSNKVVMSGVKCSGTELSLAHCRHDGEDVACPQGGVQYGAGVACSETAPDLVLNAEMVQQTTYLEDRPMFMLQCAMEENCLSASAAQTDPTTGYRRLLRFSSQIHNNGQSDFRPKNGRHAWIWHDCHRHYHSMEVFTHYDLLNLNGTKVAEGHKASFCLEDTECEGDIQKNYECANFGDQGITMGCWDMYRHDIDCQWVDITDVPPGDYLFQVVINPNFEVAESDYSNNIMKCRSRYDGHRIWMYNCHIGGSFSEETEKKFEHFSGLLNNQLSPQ
Description: For in vitro lysyl oxidase activity (for recombinant proteins), Lysyl Oxidase Activity kit (Biovision, USA) was used according to manufacturer's instructions. Briefly, 1 μg of LOX (Novus, USA), 0.2 μg of LOXL1 (Abcam, USA) and 0.1 μg of LOXL2 (Abcam, USA) were incubated with the reagent mix in the presence of inhibitors or vehicle. Lysyl oxidase activity of the wells was measured in multimode reader (every 30 sec, total 2.5 hours) in […] mode.

[2] = system: TM01278 PDX organoids; experiment: PDX-derived TNBC organoids, combination with doxorubicin; format: cell-based, human; conditions: combination with doxorubicin (50 nM) vs single agents, 9 days
Description: FIG. 36. Combination of 6403 and 6415 with doxorubicin reduced the growth of the TNBC organoids. A. Representative images of TM01278 PDX organoids at day 0 and day 9 after treatment with doxorubicin (50 nM) and 6403 and 6415 treatments, alone or in combination. B. Quantification of organoid diameter and viability upon combination therapy for 9 days.
TNBC organoids were established from a fresh surgical tissue by cutting the tumor into small pieces and incubating in collagenase A solution with ROCK inhibitor on a shaker at 37° C. for 30 minutes. The collagenase activity was inhibited by adding FBS, and pipetting was done to ensure the formation of almost a single cell solution. After several washes with PBS, the cell pellet was dissolved in matrigel. Breast organoid media containing ROCK and GSK inhibitors was added after the Matrigel solidified. See, Sachs, N. et al. A Living Biobank of Breast Cancer Organoids Captures Disease Heterogeneity. Cell 172, 373-386 e310, doi:10.1016/j.cell.2017.11.010 (2018). For drug testing studies, organoids were disrupted to single cells by digesting at 37° C. for 30 mins with TrypLE (A1217701, Gibco, NY, USA) in the presence of 10 μM Rock inhibitor (s1049, Selleckchem, TX, USA). Organoids were plated into wells of 96 well plate (20.000 cells/well) on a collagen-coated surface with media containing 2% Matrigel (356252, Corning, NY, USA). Drugs were added 72 hours after plating. Cells were grown in the presence of drug or vehicle for 9 days, and photos were taken from each well to show the organoid size. Organoid viability was measured by using 3D Cell Titer Glo (Promega, USA) kit.

[3] = system: MCF12A; experiment: Viability assay in normal cells; format: cell-based, human; conditions: normal breast cell line
Description: (§1) FIG. 32. 6232 derivatives, 6403 and 6415, show no cytotoxicity in normal cells. Viability assay in normal breast cell line, MCF12A, human foreskin fibroblast cell line, HFF and human endothelial cell line, HUVEC treated with 6403 or 6415.

[4] = system: HCC1143; experiment: Doxorubicin chemosensitization in 3D collagen I culture; format: cell-based, human; conditions: collagen I-embedded cells, combination with doxorubicin
Description: (§2) Collagen solution was prepared at a concentration of 0.5-1 mg/ml from the rat tail collagen I (Corning, USA) with a neutralization step including the addition of 1N NaOH solution. Cells were trypsinazed and resuspended in collagen:matrigel mix (1:1). 8×10^3 cells were seeded into 96-well or μ-Slide 8-well glass bottom chambers. After 1 hour of incubation at room temperature, media was added on top of the solidified collagen:matrigel mix. Drug treatments were done 12 hours after cell seeding.
(§3) Cells were embedded in type I collagen:matrigel mix as described above. Cells were grown in the presence of doxorubicin or LOX inhibitors alone or combination of LOX inhibitors with doxorubicin for 48 hours. After the treatment, cell viability was measured by using 3D Cell Titer Glo (Promega, USA) kit.

[5] = system: MDA-MB-231 cells; experiment: as above; format: cell-based, human; conditions: collagen I-embedded cells, combination with doxorubicin
Description: as §2, §3

[6] = system: HUVEC; experiment: Viability assay in normal cells; format: cell-based; conditions: human endothelial cell line
Description: as §1

[7] = system: HFF; experiment: Viability assay in normal cells; format: cell-based; conditions: human foreskin fibroblast cell line
Description: as §1

[8] = system: ACHN ccRCC xenografts; experiment: Kidney cancer xenograft model; format: in vivo, BALB/c nude mice; conditions: 50 mg/kg, PO, daily
Description: FIG. 42. Efficacy of 6403 as a single agent in ccRC xenografts. Tumor volume (A), % body weight change (B) and blood count (C) of 6403-treated (50 mg/kg, PO, daily) ACHN xenografts. μg=microgram. LOX expression in ACHN cells is provided by an inset next to the graph in A.
For kidney xenografts, 4×10^6 ACHN cells were mixed with 1:1 DMEM and matrigel and injected into the flank of the BALB/c nude mice. Mouse weight and tumor volumes were measured every second day using calipers. When tumor sizes reach 100 mm^3, mice were randomly distributed into vehicle and 6403 treatment group. Mice were treated daily by oral gavage with vehicle v (50% PEG400, 1% Tween 80 in acetate buffer pH=4) or 50 mg/kg of 6403.

| Compound | inhibition of recombinant LOXL2 [1] | organoid size [2] | organoid viability [2] | inhibition of recombinant LOXL2 activity ([1]; 5 and 10 uM) | cell viability (cytotoxicity in normal cells) [3] | doxorubicin sensitization [4] | doxorubicin sensitization [5] | cell viability (cytotoxicity in normal cells) [6] | cell viability (cytotoxicity in normal cells) [7] | body weight [8] | counts of major blood cells [8] | tumor growth ([8]; single agent) |
| --- | --- | --- | --- | --- | --- | --- | --- | --- | --- | --- | --- | --- |
| Cc1nc(N)sc1-c1csc(Nc2ccc([N+](=O)[O-])cc2)n1 [compound 6232, 4-methyl-5-[2-(4-nitroanilino)thiazol-4-yl]thiazol-2-amine] | moderately inhibit | – | – | – | – | – | – | – | – | – | – | – |
| Cc1nc(N)sc1-c1csc(N(C)c2ccc(O)cc2)n1 [compound 6415, 4-[[4-(2-amino-4-methyl-thiazol-5-yl)thiazol-2-yl]-methyl-amino]phenol] | inhibits both LOX and LOXL2 recombinant proteins | significantly decreased organoid size | significantly decreased | inhibited the activity of LOX and LOXL2 recombinant proteins | no significant change in cell viability | led to doxorubicin sensitization | led to doxorubicin sensitization | no significant change in cell viability | no significant change in cell viability | – | – | – |
| CC(=O)Nc1ccc(Nc2nc(-c3sc(N)nc3C)cs2)cc1 [compound 6403, N-[4-[[4-(2-amino-4-methyl-thiazol-5-yl)thiazol-2-yl]amino]phenyl]acetamide] | – | significantly decreased organoid size | significantly decreased | – | no significant change in cell viability | led to doxorubicin sensitization | led to doxorubicin sensitization | no significant change in cell viability | no significant change in cell viability | without impacting | without impacting | successfully reduced the tumor growth |
